The record followed here is patent publication US20260166128A1, “HUMAN AMYLIN ANALOG, AND DERIVATIVE THEREOF AND USE THEREOF” (priority 2022, published 2026).

Numbered stars: 1 amine (or outer) side, 2 acyl side, 3 side chain; on linkers, the order of the positions; unused ones are H or OH. Bridge positions count the residues as written; N and C are the ends. Square brackets hold non-standard residues; d marks the D form. Side chains are listed from the residue outwards. Peptide text beside a SMILES is read from it. * marks the point of attachment. C20 diacid = O=C(O)CCCCCCCCCCCCCCCCCCC(=O)*; C18 diacid = O=C(O)CCCCCCCCCCCCCCCCC(=O)*; γGlu = O=C(O)[C@H](CCC(=O)[*:2])N[*:1]; Hyp = O=C(O)[C@@H]1C[C@@H](O)CN1; AEEA = NCCOCCOCC(=O)O

This test addresses T1, human amylin receptor (Homo sapiens, UniProt O60896+P30988).
T1 construct: host or cells: CHO-K1/Ga15/AMY3 cells, further stably transfected with a CRE-luciferase plasmid
T1 sequence (P30988 25-474): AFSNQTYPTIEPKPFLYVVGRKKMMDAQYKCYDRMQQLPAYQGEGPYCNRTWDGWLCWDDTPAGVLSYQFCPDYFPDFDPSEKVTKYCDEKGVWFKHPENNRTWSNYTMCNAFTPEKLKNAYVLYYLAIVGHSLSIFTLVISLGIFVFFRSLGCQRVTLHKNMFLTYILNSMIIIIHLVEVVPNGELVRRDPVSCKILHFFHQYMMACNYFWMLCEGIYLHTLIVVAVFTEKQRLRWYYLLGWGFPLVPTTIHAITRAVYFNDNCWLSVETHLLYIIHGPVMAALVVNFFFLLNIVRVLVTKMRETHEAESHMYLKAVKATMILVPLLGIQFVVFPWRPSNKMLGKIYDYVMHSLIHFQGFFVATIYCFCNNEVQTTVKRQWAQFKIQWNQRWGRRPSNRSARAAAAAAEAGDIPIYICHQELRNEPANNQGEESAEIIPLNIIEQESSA
T1 sequence (O60896 24-148 partner): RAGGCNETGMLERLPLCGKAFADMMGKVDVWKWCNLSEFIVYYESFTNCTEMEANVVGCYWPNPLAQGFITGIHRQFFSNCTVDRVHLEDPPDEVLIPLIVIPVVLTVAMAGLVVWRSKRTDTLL
Briefly: Luciferase assay of amylin derivatives in amylin receptor/CRE-luc CHO cell line. To be noted: CHO-K1/Ga15/AMY3 CRE-luc cells, 24 hours incubation, F12 medium containing 10% FBS; read-out: EC50. It counts as cell-based.
Method: The experiment was intended to detect the activity or efficacy of the amylin derivatives on a human amylin receptor in vitro by luciferase assay.
50 μL of growth medium (F12 medium containing 10% FBS) was added into each well of a white 96-well plate, and the stably transfected amylin/CRE-lue CHO cells were inoculated into the white 96-well plate at a density of about 20,000 cells/well for activity determination.
In general, EC50 refers to the concentration giving half of the maximal effect. Take `CC[C@H](C)[C@H](NC(=O)[C@@H]1CCCN1C(=O)CNC(=O)[C@H](CC(C)C)NC(=O)[C@H](CCCCNC(=O)COCCOCCNC(=O)CC[C@H](NC(=O)CCCCCCCCCCCCCCCCCCC(=O)O)C(=O)O)NC(=O)[C@H](CC(N)=O)NC(=O)[C@H](CO)NC(=O)[C@H](CO)NC(=O)[C@H](Cc1c[nH]cn1)NC(=O)[C@H](CCCNC(=N)N)NC(=O)[C@H](CC(C)C)NC(=O)[C@H](Cc1ccccc1)NC(=O)[C@H](CC(=O)O)NC(=O)[C@H](C)NC(=O)[C@H](CC(C)C)NC(=O)[C@H](CCCNC(=N)N)NC(=O)[C@H](CCC(N)=O)NC(=O)[C@@H](NC(=O)[C@H](C)NC(=O)[C@@H]1CSSC[C@H](NC(=O)[C@@H](N)CCCNC(=N)N)C(=O)N[C@@H](CC(N)=O)C(=O)N[C@@H]([C@@H](C)O)C(=O)N[C@@H](C)C(=O)N[C@@H]([C@@H](C)O)C(=O)N1)[C@@H](C)O)C(=O)N[C@@H](CC(C)C)C(=O)N1CCC[C@H]1C(=O)N1CCC[C@H]1C(=O)N[C@H](C(=O)N[C@@H](CC(N)=O)C(=O)N[C@H](C(=O)NCC(=O)N[C@@H](CO)C(=O)N[C@@H](CC(N)=O)C(=O)N[C@H](C(=O)N1C[C@H](O)C[C@H]1C(N)=O)[C@@H](C)O)C(C)C)[C@@H](C)O` [PD112] (H-RCNTATCATQRLADFLRHSSNK([AEEA-γGlu-C20 diacid])LGPILPPTNVGSNT[Hyp]-NH2; disulfide 2-7): the EC50 turned out to be 0.03 nM.
For `CC[C@H](C)[C@H](NC(=O)[C@@H]1CCCN1C(=O)[C@H](Cc1c[nH]cn1)NC(=O)[C@H](CC(C)C)NC(=O)[C@H](CC(N)=O)NC(=O)[C@H](CC(N)=O)NC(=O)[C@H](CO)NC(=O)[C@H](CO)NC(=O)[C@H](Cc1c[nH]cn1)NC(=O)[C@H](CCCNC(=N)N)NC(=O)[C@H](CC(C)C)NC(=O)[C@H](Cc1ccccc1)NC(=O)[C@H](CC(=O)O)NC(=O)[C@H](C)NC(=O)[C@H](CC(C)C)NC(=O)[C@H](CCCNC(=N)N)NC(=O)[C@H](CCC(N)=O)NC(=O)[C@@H](NC(=O)[C@H](C)NC(=O)[C@@H]1CSSC[C@H](NC(=O)[C@H](CCCCN)NC(=O)CC[C@H](NC(=O)CCCCCCCCCCCCCCCCCCC(=O)O)C(=O)O)C(=O)N[C@@H](CC(N)=O)C(=O)N[C@@H]([C@@H](C)O)C(=O)N[C@@H](C)C(=O)N[C@@H]([C@@H](C)O)C(=O)N1)[C@@H](C)O)C(=O)N[C@@H](CC(C)C)C(=O)N1CCC[C@H]1C(=O)N1CCC[C@H]1C(=O)N[C@H](C(=O)N[C@@H](CC(N)=O)C(=O)N[C@H](C(=O)NCC(=O)N[C@@H](CO)C(=O)N[C@@H](CC(N)=O)C(=O)N[C@H](C(=O)N1C[C@H](O)C[C@H]1C(N)=O)[C@@H](C)O)C(C)C)[C@@H](C)O` [PD159] ({C20 diacid-γGlu}-KCNTATCATQRLADFLRHSSNNLHPILPPTNVGSNT[Hyp]-NH2; disulfide 2-7), the EC50 is 0.037 nM.
Take `CC[C@H](C)[C@H](NC(=O)[C@@H]1CCCN1C(=O)[C@H](CCCCN)NC(=O)[C@H](CC(C)C)NC(=O)[C@H](CC(N)=O)NC(=O)[C@H](CC(N)=O)NC(=O)[C@H](CO)NC(=O)[C@H](CO)NC(=O)[C@H](Cc1c[nH]cn1)NC(=O)[C@H](CCCNC(=N)N)NC(=O)[C@H](CC(C)C)NC(=O)[C@H](Cc1ccccc1)NC(=O)[C@H](CC(=O)O)NC(=O)[C@H](C)NC(=O)[C@H](CC(C)C)NC(=O)[C@H](CCCNC(=N)N)NC(=O)[C@H](CCC(N)=O)NC(=O)[C@@H](NC(=O)[C@H](C)NC(=O)[C@@H]1CSSC[C@H](NC(=O)[C@H](CCCCN)NC(=O)CC[C@H](NC(=O)COCCOCCNC(=O)COCCOCCNC(=O)CCCCCCCCCCCCCCCCCCC(=O)O)C(=O)O)C(=O)N[C@@H](CC(N)=O)C(=O)N[C@@H]([C@@H](C)O)C(=O)N[C@@H](C)C(=O)N[C@@H]([C@@H](C)O)C(=O)N1)[C@@H](C)O)C(=O)N[C@@H](CC(C)C)C(=O)N1CCC[C@H]1C(=O)N1CCC[C@H]1C(=O)N[C@H](C(=O)N[C@@H](CC(N)=O)C(=O)N[C@H](C(=O)NCC(=O)N[C@@H](CO)C(=O)N[C@@H](CC(N)=O)C(=O)N[C@H](C(=O)N1C[C@H](O)C[C@H]1C(N)=O)[C@@H](C)O)C(C)C)[C@@H](C)O` [PD176] ({C20 diacid-AEEA-AEEA-γGlu}-KCNTATCATQRLADFLRHSSNNLKPILPPTNVGSNT[Hyp]-NH2; disulfide 2-7): the concentration giving a half-maximal response (EC50) is 0.029 nM.
For the molecule `CC[C@H](C)[C@H](NC(=O)[C@@H]1CCCN1C(=O)CNC(=O)[C@H](CC(C)C)NC(=O)[C@H](CCCCNC(=O)COCCOCCNC(=O)CC[C@H](NC(=O)CCCCCCCCCCCCCCCCC(=O)O)C(=O)O)NC(=O)[C@H](CC(N)=O)NC(=O)[C@H](CO)NC(=O)[C@H](CO)NC(=O)[C@H](Cc1c[nH]cn1)NC(=O)[C@H](CCCNC(=N)N)NC(=O)[C@H](CC(C)C)NC(=O)[C@H](Cc1ccccc1)NC(=O)[C@H](CC(=O)O)NC(=O)[C@H](C)NC(=O)[C@H](CC(C)C)NC(=O)[C@H](CCCNC(=N)N)NC(=O)[C@H](CCC(N)=O)NC(=O)[C@@H](NC(=O)[C@H](C)NC(=O)[C@@H]1CSSC[C@H](NC(=O)[C@@H](N)CCCNC(=N)N)C(=O)N[C@@H](CC(N)=O)C(=O)N[C@@H]([C@@H](C)O)C(=O)N[C@@H](C)C(=O)N[C@@H]([C@@H](C)O)C(=O)N1)[C@@H](C)O)C(=O)N[C@@H](CC(C)C)C(=O)N1CCC[C@H]1C(=O)N1CCC[C@H]1C(=O)N[C@H](C(=O)N[C@@H](CC(N)=O)C(=O)N[C@H](C(=O)NCC(=O)N[C@@H](CO)C(=O)N[C@@H](CC(N)=O)C(=O)N[C@H](C(=O)N1C[C@H](O)C[C@H]1C(N)=O)[C@@H](C)O)C(C)C)[C@@H](C)O` [PD113] (H-RCNTATCATQRLADFLRHSSNK([AEEA-γGlu-C18 diacid])LGPILPPTNVGSNT[Hyp]-NH2; disulfide 2-7), the EC50 was 0.017 nM.
For the molecule `CC[C@H](C)[C@H](NC(=O)[C@H](CCCCNC(=O)CC[C@H](NC(=O)CCCCCCCCCCCCCCCCC(=O)O)C(=O)O)NC(=O)CNC(=O)[C@H](CC(C)C)NC(=O)[C@H](CC(N)=O)NC(=O)[C@H](CC(N)=O)NC(=O)[C@H](CO)NC(=O)[C@H](CO)NC(=O)[C@H](Cc1c[nH]cn1)NC(=O)[C@H](CCCNC(=N)N)NC(=O)[C@H](CC(C)C)NC(=O)[C@H](Cc1ccccc1)NC(=O)[C@H](CC(=O)O)NC(=O)[C@H](C)NC(=O)[C@H](CC(C)C)NC(=O)[C@H](CCCNC(=N)N)NC(=O)[C@H](CCC(N)=O)NC(=O)[C@@H](NC(=O)[C@H](C)NC(=O)[C@@H]1CSSC[C@H](NC(=O)[C@@H](N)CCCNC(=N)N)C(=O)N[C@@H](CC(N)=O)C(=O)N[C@@H]([C@@H](C)O)C(=O)N[C@@H](C)C(=O)N[C@@H]([C@@H](C)O)C(=O)N1)[C@@H](C)O)C(=O)N[C@@H](CC(C)C)C(=O)N1CCC[C@H]1C(=O)N1CCC[C@H]1C(=O)N[C@H](C(=O)N[C@@H](CC(N)=O)C(=O)N[C@H](C(=O)NCC(=O)N[C@@H](CO)C(=O)N[C@@H](CC(N)=O)C(=O)N[C@H](C(=O)N1C[C@H](O)C[C@H]1C(N)=O)[C@@H](C)O)C(C)C)[C@@H](C)O` [PD104] (H-RCNTATCATQRLADFLRHSSNNLGK([γGlu-C18 diacid])ILPPTNVGSNT[Hyp]-NH2; disulfide 2-7), the concentration giving a half-maximal response (EC50) stood at 0.011 nM.
